Measurements reported in patent US12495798B2, “Nicotinamide compound and herbicidal composition comprising compound” (KOREA RESEARCH INSTITUTE OF CHEMICAL TECHNOLOGY, priority 2019, dated 2025).

What was measured:
Assay type in all cases: in vivo
barnyard grass = assay: Herbicidal activity test against upland field weeds (foliar treatment test); conditions: Echinochloa crus-galli, 50 g ai/ha, scale 0-100
Procedure, shortened: (§1)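 Weeds were raised from seed or rootstocks in horticultural soil in a greenhouse (30±5° C., 14/10 h light/dark), then foliage was hand-sprayed with compound at 50 or 75 g a.i./ha in 50% acetone with 0.1% Tween-20. Control was scored visually 0–100 against untreated plants after 14 days, or 21 if needed.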

quack grass = assay: as above; design: key to Foliar treatment herbicidal activity, quack grass: 0 (no control); 100 (complete control); conditions: 50 g ai/ha, scale 0-100
Procedure, shortened: as §1

fall panicum = assay: as above; conditions: Panicum dichotomiflorum, 50 g ai/ha, scale 0-100
Procedure, shortened: as §1

bindweed = assay: as above; design: key to Foliar treatment herbicidal activity, Bindweed: 0 (no control); 100 (complete control); conditions: 50 g ai/ha, scale 0-100
Procedure, shortened: as §1

corn = assay: Phytotoxicity test for upland field crops (foliar treatment test); design: key: 0 (no harm); 9 (complete withered)
Procedure, shortened: (§2)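 Greenhouse-grown crops (30±5 °C, 14/10 h light/dark) in soil pots were foliar-sprayed with compound in 33% acetone/0.1% Tween-20 at 19˜300 g a.i./ha, 100 ml per m^2. Injury was graded 0 (no harm) to 9 (complete withered) versus untreated control at 7 and 14 days after treatment, or 21 days if needed.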

cotton = assay: as above; design: key: 0 (no harm); 9 (complete withered)
Procedure, shortened: as §2

rice = assay: as above; design: key: 0 (no harm); 9 (complete withered)
Procedure, shortened: as §2

soybean = assay: as above; design: key: 0 (no harm); 9 (complete withered)
Procedure, shortened: as §2

wheat = assay: as above; design: key: 0 (no harm); 9 (complete withered)
Procedure, shortened: as §2

[1] = 50 g ai/ha, Corn (7 days after treatment)
[2] = 50 g ai/ha, Corn (14 days after treatment)
[3] = 100 g ai/ha, Corn (7 days after treatment)
[4] = 100 g ai/ha, Corn (14 days after treatment)
[5] = 50 g ai/ha, Cotton (7 days after treatment)
[6] = 50 g ai/ha, Cotton (14 days after treatment)
[7] = 100 g ai/ha, Cotton (7 days after treatment)
[8] = 100 g ai/ha, Cotton (14 days after treatment)
[9] = 50 g ai/ha, Rice (7 days after treatment)
[10] = 50 g ai/ha, Rice (14 days after treatment)
[11] = 100 g ai/ha, Rice (7 days after treatment)
[12] = 100 g ai/ha, Rice (14 days after treatment)
[13] = 50 g ai/ha, Soybean (7 days after treatment)
[14] = 50 g ai/ha, Soybean (14 days after treatment)
[15] = 100 g ai/ha, Soybean (7 days after treatment)
[16] = 100 g ai/ha, Soybean (14 days after treatment)
[17] = 50 g ai/ha, Wheat (7 days after treatment)
[18] = 50 g ai/ha, Wheat (14 days after treatment)
[19] = 100 g ai/ha, Wheat (7 days after treatment)
[20] = 100 g ai/ha, Wheat (14 days after treatment)

Structure (SMILES): CON(Cc1nnn(C)n1)Cc1nc(C(F)(F)F)ccc1C(=O)Nc1nnnn1C [Compound No. 2-97, 2-((methoxy((2-methyl-2H-tetrazol-5-yl)methyl)amino)methyl)-N-(1-methyl-1H-tetrazol-5-yl)-6-(trifluoromethyl)nicotinamide]
- pest or weed control at 50 g/ha (barnyard grass): 95%
- Foliar treatment herbicidal activity, quack grass (quack grass): 0
- pest or weed control at 50 g/ha (fall panicum): 95%
- pest or weed control at 50 g/ha (bindweed): 80%
- Foliar treatment phytotoxicity, Corn (corn; [1]): 0
- Foliar treatment phytotoxicity, Corn (corn; [2]): 0
- Foliar treatment phytotoxicity, Corn (corn; [3]): 2
- Foliar treatment phytotoxicity, Corn (corn; [4]): 1
- Foliar treatment phytotoxicity, Cotton (cotton; [5]): 5
- Foliar treatment phytotoxicity, Cotton (cotton; [6]): 9
- Foliar treatment phytotoxicity, Cotton (cotton; [7]): 6
- Foliar treatment phytotoxicity, Cotton (cotton; [8]): 9
- Foliar treatment phytotoxicity, Rice (rice; [9]): 6
- Foliar treatment phytotoxicity, Rice (rice; [10]): 8
- Foliar treatment phytotoxicity, Rice (rice; [11]): 6
- Foliar treatment phytotoxicity, Rice (rice; [12]): 9
- Foliar treatment phytotoxicity, Soybean (soybean; [13]): 5
- Foliar treatment phytotoxicity, Soybean (soybean; [14]): 6
- Foliar treatment phytotoxicity, Soybean (soybean; [15]): 7
- Foliar treatment phytotoxicity, Soybean (soybean; [16]): 9
- Foliar treatment phytotoxicity, Wheat (wheat; [17]): 0
- Foliar treatment phytotoxicity, Wheat (wheat; [18]): 0
- Foliar treatment phytotoxicity, Wheat (wheat; [19]): 0
- Foliar treatment phytotoxicity, Wheat (wheat; [20]): 0

Structure (SMILES): Cn1nnc(CSCc2nc(C(F)(F)F)ccc2C(=O)Nc2nnnn2C)n1 [Compound No. 2-102, N-(1-methyl-1H-tetrazol-5-yl)-2-((((2-methyl-2H-tetrazol-5-yl)methyl)thio)methyl)-6-(trifluoromethyl)nicotinamide]
- pest or weed control at 50 g/ha (barnyard grass): 95%
- Foliar treatment herbicidal activity, quack grass (quack grass): 0
- pest or weed control at 50 g/ha (fall panicum): 80%
- Foliar treatment herbicidal activity, Bindweed (bindweed): 100
- Foliar treatment phytotoxicity, Corn (corn; [1]): 0
- Foliar treatment phytotoxicity, Corn (corn; [2]): 0
- Foliar treatment phytotoxicity, Corn (corn; [3]): 0
- Foliar treatment phytotoxicity, Corn (corn; [4]): 0
- Foliar treatment phytotoxicity, Cotton (cotton; [5]): 0
- Foliar treatment phytotoxicity, Cotton (cotton; [6]): 0
- Foliar treatment phytotoxicity, Cotton (cotton; [7]): 0
- Foliar treatment phytotoxicity, Cotton (cotton; [8]): 0
- Foliar treatment phytotoxicity, Rice (rice; [9]): 3
- Foliar treatment phytotoxicity, Rice (rice; [10]): 3
- Foliar treatment phytotoxicity, Rice (rice; [11]): 4
- Foliar treatment phytotoxicity, Rice (rice; [12]): 4
- Foliar treatment phytotoxicity, Soybean (soybean; [13]): 0
- Foliar treatment phytotoxicity, Soybean (soybean; [14]): 0
- Foliar treatment phytotoxicity, Soybean (soybean; [15]): 0
- Foliar treatment phytotoxicity, Soybean (soybean; [16]): 0
- Foliar treatment phytotoxicity, Wheat (wheat; [17]): 0
- Foliar treatment phytotoxicity, Wheat (wheat; [18]): 0
- Foliar treatment phytotoxicity, Wheat (wheat; [19]): 0
- Foliar treatment phytotoxicity, Wheat (wheat; [20]): 1

Structure (SMILES): Cn1nnc(CSCc2nc(C(F)(F)F)ccc2C(=O)N(c2nnnn2C)S(C)(=O)=O)n1 [Compound No. 2-110, N-(1-methyl-1H-tetrazol-5-yl)-2-((((2-methyl-2H-tetrazol-5-yl)methyl)thio)methyl)-N-(methylsulfonyl)-6-(trifluoromethyl)nicotinamide]
- pest or weed control at 50 g/ha (barnyard grass): 20%
- Foliar treatment herbicidal activity, quack grass (quack grass): 0
- pest or weed control at 50 g/ha (fall panicum): 70%
- pest or weed control at 50 g/ha (bindweed): 98%
- Foliar treatment phytotoxicity, Corn (corn; [1]): 0
- Foliar treatment phytotoxicity, Corn (corn; [2]): 0
- Foliar treatment phytotoxicity, Corn (corn; [3]): 0
- Foliar treatment phytotoxicity, Corn (corn; [4]): 0
- Foliar treatment phytotoxicity, Wheat (wheat; [17]): 0
- Foliar treatment phytotoxicity, Wheat (wheat; [18]): 0
- Foliar treatment phytotoxicity, Wheat (wheat; [19]): 0
- Foliar treatment phytotoxicity, Wheat (wheat; [20]): 0

Structure (SMILES): Cc1nc(COCc2nc(C(F)(F)F)ccc2C(=O)Nc2nnnn2C)nn1C [Compound No. 2-116, 2-(((1,5-dimethyl-1H-1,2,4-triazol-3-yl)methoxy)methyl)-N-(1-methyl-1H-tetrazol-5-yl)-6-(trifluoromethyl)nicotinamide]
- pest or weed control at 50 g/ha (barnyard grass): 98%
- Foliar treatment herbicidal activity, quack grass (quack grass): 0
- pest or weed control at 50 g/ha (fall panicum): 80%
- pest or weed control at 50 g/ha (bindweed): 90%
- Foliar treatment phytotoxicity, Corn (corn; [1]): 1
- Foliar treatment phytotoxicity, Corn (corn; [2]): 0
- Foliar treatment phytotoxicity, Corn (corn; [3]): 2
- Foliar treatment phytotoxicity, Corn (corn; [4]): 2
- Foliar treatment phytotoxicity, Cotton (cotton; [5]): 2
- Foliar treatment phytotoxicity, Cotton (cotton; [6]): 1
- Foliar treatment phytotoxicity, Cotton (cotton; [7]): 3
- Foliar treatment phytotoxicity, Cotton (cotton; [8]): 2
- Foliar treatment phytotoxicity, Rice (rice; [9]): 4
- Foliar treatment phytotoxicity, Rice (rice; [10]): 5
- Foliar treatment phytotoxicity, Rice (rice; [11]): 4
- Foliar treatment phytotoxicity, Rice (rice; [12]): 5
- Foliar treatment phytotoxicity, Soybean (soybean; [13]): 2
- Foliar treatment phytotoxicity, Soybean (soybean; [14]): 3
- Foliar treatment phytotoxicity, Soybean (soybean; [15]): 3
- Foliar treatment phytotoxicity, Soybean (soybean; [16]): 5
- Foliar treatment phytotoxicity, Wheat (wheat; [17]): 0
- Foliar treatment phytotoxicity, Wheat (wheat; [18]): 0
- Foliar treatment phytotoxicity, Wheat (wheat; [19]): 0
- Foliar treatment phytotoxicity, Wheat (wheat; [20]): 0

Structure (SMILES): Cc1nc(COCc2nc(C(F)(F)F)ccc2C(=S)Nc2nnnn2C)nn1C [Compound No. 2-117, 2-(((1,5-dimethyl-1H-1,2,4-triazol-3-yl)methoxy)methyl)-N-(1-methyl-1H-tetrazol-5-yl)-6-(trifluoromethyl)pyridin-3-carbothioamide]
- pest or weed control at 50 g/ha (barnyard grass): 98%
- Foliar treatment herbicidal activity, quack grass (quack grass): 0
- pest or weed control at 50 g/ha (fall panicum): 40%
- pest or weed control at 50 g/ha (bindweed): 70%
- Foliar treatment phytotoxicity, Corn (corn; [1]): 1
- Foliar treatment phytotoxicity, Corn (corn; [2]): 1
- Foliar treatment phytotoxicity, Corn (corn; [3]): 3
- Foliar treatment phytotoxicity, Corn (corn; [4]): 2
- Foliar treatment phytotoxicity, Cotton (cotton; [5]): 3
- Foliar treatment phytotoxicity, Cotton (cotton; [6]): 2
- Foliar treatment phytotoxicity, Cotton (cotton; [7]): 4
- Foliar treatment phytotoxicity, Cotton (cotton; [8]): 2
- Foliar treatment phytotoxicity, Rice (rice; [9]): 3
- Foliar treatment phytotoxicity, Rice (rice; [10]): 6
- Foliar treatment phytotoxicity, Rice (rice; [11]): 4
- Foliar treatment phytotoxicity, Rice (rice; [12]): 5
- Foliar treatment phytotoxicity, Soybean (soybean; [13]): 3
- Foliar treatment phytotoxicity, Soybean (soybean; [14]): 5
- Foliar treatment phytotoxicity, Soybean (soybean; [15]): 4
- Foliar treatment phytotoxicity, Soybean (soybean; [16]): 6
- Foliar treatment phytotoxicity, Wheat (wheat; [17]): 0
- Foliar treatment phytotoxicity, Wheat (wheat; [18]): 0
- Foliar treatment phytotoxicity, Wheat (wheat; [19]): 1
- Foliar treatment phytotoxicity, Wheat (wheat; [20]): 0
